Experimental data reported in patent US6642227B2, “Inhibitors of c-Jun N-terminal kinases (JNK) and other protein kinases” (Vertex Pharmaceuticals Incorporated, priority 2001, dated 2003).

Columns and labels:
human Lck kinase = human Lck kinase (UniProt P06239); assay: Lck inhibition assay (A: radioactivity-based or B: spectrophotometric coupled-enzyme assay); assay type: biochemical; details: read-out: Lck Activity (Ki rating)
Method in brief: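 Two formats. Radiometric: full-length bovine thymus Lck, poly(Glu:Tyr 4:1) 5 mg/ml, 10 μM ATP with ^33P-ATP, HEPES pH 7.6, 10 min preincubation then 20 min at 30 °C, TCA-quenched filter counting. Coupled: 50 nM recombinant human Lck, 150 μM ATP, NADH loss at 340 nm. Ki from competitive-inhibition fit.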

human Src kinase = molecular target: T1, human Src kinase (Homo sapiens, UniProt P12931); assay: Src inhibition assay (A: radioactivity-based or B: spectrophotometric coupled-enzyme assay); assay type: biochemical; details: assay A or B not specified; inhibitor concentration not given
T1 construct: full length recombinant human Src kinase; purchased Upstate Biotechnology 14-117; host or cells: baculovirus-infected cells
Procedure: The compounds were evaluated as inhibitors of human Src kinase using either a radioactivity-based assay or spectrophotometric assay.
The compounds were assayed as inhibitors of full length recombinant human Src kinase (from Upstate Biotechnology, cat. no. 14-117) expressed and purified from baculo viral cells. Src kinase activity was monitored by following the incorporation of ^33p from ATP into the tyrosine of a random poly Glu-Tyr polymer substrate of composition, Glu:Tyr=4:1 (Sigma, cat. no. P-0275). The following were the final concentrations of the assay components: 0.05 M HEPES, pH 7.6, 10 mM MgCl2, 2 mM DTT, 0.25 mg/ml BSA, 10 μM ATP (1-2 uCi ^33P-ATP per reaction), 5 mg/ml poly Glu-Tyr, and 1-2 units of recombinant human Src kinase. In a typical assay, all the reaction components with the exception of ATP were pre-mixed and aliquoted into assay plate wells.
Inhibitors dissolved in DMSO were added to the wells to give a final DMSO concentration of 2.5%. The assay plate was incubated at 30° C. for 10 min before initiating the reaction with ^33P-ATP. After 20 min of reaction, the reactions were quenched with 150 μl of 10% trichloroacetic acid (TCA) containing 20 mM Na3PO4. The quenched samples were then transferred to a 96-well filter plate (Whatman, UNI-Filter GF/F Glass Fiber Filter, cat no. 7700-3310) installed on a filter plate vacuum manifold. Filter plates were washed four times with 10% TCA containing 20 mM Na3PO4 and then 4 times with methanol. 200 μl of scintillation fluid was then added to each well. The plates were sealed and the amount of radioactivity associated with the filters was quantified on a TopCount scintillation counter. The radioactivity incorporated was plotted as a function of the inhibitor concentration. The data was fitted to a competitive inhibition kinetics model to get the Ki for the compound.
The ADP produced from ATP by the human recombinant Src kinase-catalyzed phosphorylation of poly Glu-Tyr substrate was quanitified using a coupled enzyme assay (Fox et al (1998) Protein Sci 7, 2249). In this assay one molecule of NADH is oxidised to NAD for every molecule of ADP produced in the kinase reaction. The disappearance of NADH can be conveniently followed at 340 nm.
The following were the final concentrations of the assay components: 0.025 M HEPES, pH 7.6, 10 mM MgCl2, 2 mM DTT, 0.25 mg/ml poly Glu-Tyr, and 25 nM of recombinant human Src kinase. Final concentrations of the components of the coupled enzyme system were 2.5 mM phosphoenolpyruvate, 200 μM NADH, 30 μg/ml pyruvate kinase and 10 μg/ml lactate dehydrogenase.
In a typical assay, all the reaction components with the exception of ATP were pre-mixed and aliquoted into assay plate wells. Inhibitors dissolved in DMSO were added to the wells to give a final DMSO concentration of 2.5%. The assay plate was incubated at 30 C. for 10 min before initiating the reaction with 100 μM ATP. The absorbance change at 340 nm with time, the rate of the reaction, was monitored on a molecular devices plate reader. The data of rate as a function of the inhibitor concentration was fitted to compettive inhibition kinetics model to get the Ki for the compound.

T1 sequence (P12931 whole entry): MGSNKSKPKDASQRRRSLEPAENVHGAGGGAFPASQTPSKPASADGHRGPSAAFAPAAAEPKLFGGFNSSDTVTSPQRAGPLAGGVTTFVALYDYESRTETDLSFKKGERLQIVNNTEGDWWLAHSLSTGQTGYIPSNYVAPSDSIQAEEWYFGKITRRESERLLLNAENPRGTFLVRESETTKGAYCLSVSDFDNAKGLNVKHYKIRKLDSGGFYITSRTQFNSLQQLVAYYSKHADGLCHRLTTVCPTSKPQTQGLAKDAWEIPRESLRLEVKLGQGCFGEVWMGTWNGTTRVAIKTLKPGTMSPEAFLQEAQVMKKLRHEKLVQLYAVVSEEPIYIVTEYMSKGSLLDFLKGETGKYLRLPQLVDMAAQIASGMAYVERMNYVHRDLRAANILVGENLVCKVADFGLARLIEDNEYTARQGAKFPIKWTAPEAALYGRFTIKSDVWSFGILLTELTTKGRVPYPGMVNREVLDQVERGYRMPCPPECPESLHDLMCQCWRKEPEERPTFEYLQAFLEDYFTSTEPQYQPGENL

CSc1sc(-c2ccnc(Nc3ccccc3)n2)c(-c2ccc(Cl)cc2)c1C#N [IIa-10, 2-Methylsulfanyl-5-(2-phenylamino-pyrimidin-4-yl)-4-(4-chloro-phenyl)-thiophene-3-carbonitrile]
Ki (human Lck kinase): < 100 nM
Src Activity (percent inhibition class D-F) (human Src kinase): F (compounds having an activity designated as “F” provided a provided a percent inhibition of between 67% and 100%)

CSc1sc(-c2ccnc(Nc3ccccc3)n2)c(-c2ccc(C)cc2)c1C#N [IIa-14, 2-Methylsulfanyl-5-(2-phenylamino-pyrimidin-4-yl)-4-p-tolyl-thiophene-3-carbonitrile]
Ki (human Lck kinase): < 100 nM
Src Activity (percent inhibition class D-F) (human Src kinase): F (compounds having an activity designated as “F” provided a provided a percent inhibition of between 67% and 100%)

CCOc1sc(-c2ccnc(Nc3ccccc3)n2)c(-c2ccc(Cl)cc2)c1C#N [IIa-11, 2-Ethoxy-5-(2-phenylamino-pyrimidin-4-yl)-4-(4-chloro-phenyl)-thiophene-3-carbonitrile]
Ki (human Lck kinase): 100 to 1000 nM
Src Activity (percent inhibition class D-F) (human Src kinase): F (compounds having an activity designated as “F” provided a provided a percent inhibition of between 67% and 100%)

CCOc1sc(-c2ccnc(Nc3ccccc3)n2)c(-c2ccc(C)cc2)c1C#N [IIa-15, 2-Ethoxy-5-(2-phenylamino-pyrimidin-4-yl)-4-p-tolyl-thiophene-3-carbonitrile]
Ki (human Lck kinase): < 100 nM
Src Activity (percent inhibition class D-F) (human Src kinase): F (compounds having an activity designated as “F” provided a provided a percent inhibition of between 67% and 100%)
